The source made the active and inactive calls. The calls are words filed in the database; no cut-off is given here.
Tests used:
[1] = Antiproliferative activity against human HBC-4 cells assessed as cell growth inhibition after 48 hrs by sulforhodamine B assay; assay type: functional; conditions: HBC4
MDA-MB-231 = experiment: Antiproliferative activity against human MDA-MB-231 cells assessed as cell growth inhibition after 48 hrs by sulforhodamine B assay; assay type: functional
SF-295 = experiment: Antiproliferative activity against human SF-295 cells assessed as cell growth inhibition after 48 hrs by sulforhodamine B assay; assay type: functional
HCC 2998 = experiment: Antiproliferative activity against human HCC 2998 cells assessed as cell growth inhibition after 48 hrs by sulforhodamine B assay; assay type: functional
NCI-H460 = experiment: Antiproliferative activity against human NCI-H460 cells assessed as cell growth inhibition after 48 hrs by sulforhodamine B assay; assay type: functional
A549 = experiment: Antiproliferative activity against human A549 cells assessed as cell growth inhibition after 48 hrs by sulforhodamine B assay; assay type: functional
LOX IMVI = experiment: Antiproliferative activity against human LOX IMVI cells assessed as cell growth inhibition after 48 hrs by sulforhodamine B assay; assay type: functional
St-4 = experiment: Antiproliferative activity against human St-4 cells assessed as cell growth inhibition after 48 hrs by sulforhodamine B assay; assay type: functional
MKN-45 = experiment: Antiproliferative activity against human MKN-45 cells assessed as cell growth inhibition after 48 hrs by sulforhodamine B assay; assay type: functional
[2] = target: Protein kinase C alpha type (Mus musculus, UniProt P20444); experiment: Displacement of [3H]-PDBu from PKCalpha C1A domain in CD-1 mouse brain cytosol; assay type: subcellular
[3] = target: Protein kinase C delta type (Mus musculus, UniProt P28867); experiment: Displacement of [3H]-PDBu from PKCdelta C1B domain in CD-1 mouse brain cytosol; assay type: subcellular
Protein kinase C delta type, sequence (P28867 whole entry, the tested form may be a part): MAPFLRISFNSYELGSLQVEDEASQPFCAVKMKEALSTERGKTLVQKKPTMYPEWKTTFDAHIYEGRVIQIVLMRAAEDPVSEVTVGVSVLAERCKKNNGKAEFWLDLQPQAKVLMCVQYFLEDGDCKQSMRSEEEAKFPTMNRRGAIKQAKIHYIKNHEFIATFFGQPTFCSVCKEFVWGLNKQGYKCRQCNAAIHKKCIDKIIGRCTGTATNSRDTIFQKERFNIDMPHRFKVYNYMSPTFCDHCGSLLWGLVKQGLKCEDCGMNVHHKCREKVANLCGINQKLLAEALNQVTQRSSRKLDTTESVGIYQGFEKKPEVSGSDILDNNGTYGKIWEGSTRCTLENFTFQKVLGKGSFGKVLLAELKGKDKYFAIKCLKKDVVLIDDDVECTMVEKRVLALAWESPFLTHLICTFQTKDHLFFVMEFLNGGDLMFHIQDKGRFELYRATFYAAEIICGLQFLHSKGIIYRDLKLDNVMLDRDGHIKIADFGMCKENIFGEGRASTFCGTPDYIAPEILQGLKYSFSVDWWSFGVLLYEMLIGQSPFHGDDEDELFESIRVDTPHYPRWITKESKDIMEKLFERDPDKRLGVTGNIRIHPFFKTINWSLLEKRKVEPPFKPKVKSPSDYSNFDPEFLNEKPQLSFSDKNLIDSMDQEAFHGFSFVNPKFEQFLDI

[4] = Induction of inflammation in ICR mouse assessed as increase in relative weight of each ear at 170 nmol measured after 24 hrs; assay type: tissue-based
Ear = experiment: Proinflammatory activity in ICR mouse assessed as increase in relative weight of each ear at 17 nmol measured after 24 hrs; assay type: functional, tissue-based

SMILES | GI50 [1] | GI50 (MDA-MB-231) | GI50 (SF-295) | GI50 (HCC 2998) | GI50 (NCI-H460) | GI50 (A549) | GI50 (LOX IMVI) | GI50 (St-4) | GI50 (MKN-45) | Ki [2] | Ki [3] | Activity [4] | Activity (Ear)
C[C@H]1[C@@H]2C[C@@]3(O[C@H](CCC3(C)C)CC(=O)O[C@@H](CO)CC(=O)O2)O[C@@H]1CCCCc1cccc2cc(O)ccc12 | 91.2 nM | 891 nM | 955 nM | 501 nM | 162 nM | 759 nM | 447 nM | 240 nM | 479 nM | 6.4 nM | 0.98 nM | Toxic | 
C[C@H]1[C@@H]2C[C@@]3(O[C@H](CCC3(C)C)CC(=O)O[C@@H](CO)CC(=O)O2)O[C@@H]1CCCCc1cccc2cc(OCc3ccccc3)ccc12 | 63.1 nM | 537 nM | 871 nM | 398 nM | 115 nM | 692 nM | 182 nM | 52.5 nM | 195 nM | 7.6 nM | 0.74 nM |  | Active
C[C@H]1[C@@H]2C[C@@]3(O[C@H](CCC3(C)C)CC(=O)O[C@@H](CO)CC(=O)O2)O[C@@H]1CCCCc1cccc(O)c1 |  |  |  |  |  |  |  |  |  |  |  | Toxic | 

From ChEMBL document CHEMBL4699609, “Synthesis and biological activities of simplified aplysiatoxin analogs focused on the CH/π interaction” (Bioorg Med Chem Lett, 2020)
